This test has as its system 293T-HRE-GFP-luc cells. In words: Cell-based reporter assay for IC50 determinations. The settings on record: hypoxia 6 hrs (1% O2), luminescence, read-out: IC50 Classification. The method, then:
Cell-Based Reporter Assay for IC50 Determinations
293T-HRE-GFP-luc cells were routinely maintained in DMEM media (high glucose version with GlutaMAX and HEPES, Gibco, catalog #10564) supplemented with 10% fetal bovine serum and 2 μg/mL puromycin (Invitrogen, catalog #A11138-03) using a humidified incubator (normoxia conditions consisting of 37° C., 5% CO2 and ambient O2).
In preparation for the reporter assay, cells were harvested and resuspended in DMEM media (high glucose version with GlutaMAX and HEPES) supplemented with 10% fetal bovine serum. Cells were inoculated into 384-well white Culturplates (Perkin Elmer catalog #6007680) at a density of 12,000 cells/well in a volume of 30 μL. The microplates were incubated overnight (approximately 17-19 hours) at 37° C. with 5% CO2 and ambient O2. Stock solutions of the test compounds were prepared in DMSO (Sigma, Catalog #D2650) and serially diluted 1:3 using DMSO. Compounds were additionally diluted (1:50) with culturemedium and 10 μL were added per well to the Culturplate. Following a 30 min. incubation under normoxia conditions, the plates were incubated in hypoxia for 6 hrs. (37° C., 5% CO2 and 1% O2). Steadylite Plus (Perkin Elmer, catalog #6016751) was then added (40 μL/well), the plates were mixed on an orbital shaker at room temperature in the dark for 15 min., and luminescence was measured using an Envision plate reader (Perkin Elmer). IC50 values were calculated using a four-parameter logistic curve fit. Results are shown below in Table 2; ND indicates no data.
(In general: In a reporter assay the amount or activity of a reporter protein is the signal.)

Structures can show the parent of a compound that is named as a salt. A value given as a limit tells only on which side of the number the result lay.

From US10208059B2, “Heterocyclic modulators of HIF activity for treatment of disease” (Board of Regents, University of Texas System, priority 2012, dated 2019) come the findings set out here.

A word on the IC50: it is the concentration that inhibits the measured activity by half. As to `Cc1nc(-c2nc(-c3ccccc3)no2)nn1Cc1ccnc(N2CCN(C)CC2)c1` [Example 29, 1-Methyl-4-(4-((5-methyl-3-(3-phenyl-1,2,4-oxadiazol-5-yl)-1H-1,2,4-triazol-1-yl)methyl)pyridin-1-ium-2-yl)piperazin-1-ium bis-trifluoroacetate], the IC50 lay within 1000 to 10000 nM. The result for `Cc1nc(-c2nc(-c3ccc(OC(F)(F)F)cc3)no2)nn1Cc1cccc(C(=O)NCCN(C)C)c1` [Example 30, N-(2-(Dimethylamino)ethyl)-3-((5-methyl-3-(3-(4-(trifluoromethoxy)phenyl)-1,2,4-oxadiazol-5-yl)-1H-1,2,4-triazol-1-yl)methyl)benzamide] reads < 100 nM; that for `Cc1nc(-c2nc(-c3ccc(OC(F)(F)F)cc3)no2)nn1Cc1ccnc(N2CCC(C)(C)CC2)c1` [Example 31, 5-(1-((2-(4,4-Dimethylpiperidin-1-yl)pyridin-4-yl)methyl)-5-methyl-1H-1,2,4-triazol-3-yl)-3-(4-(trifluoromethoxy)phenyl)-1,2,4-oxadiazole], < 100 nM. On to `COCCCNc1cc(Cn2nc(-c3nc(-c4ccc(OC(F)(F)F)cc4)no3)nc2C)ccn1` [Example 32, N-(3-Methoxypropyl)-4-((5-methyl-3-(3-(4-(trifluoromethoxy)phenyl)-1,2,4-oxadiazol-5-yl)-1H-1,2,4-triazol-1-yl)methyl)pyridin-2-amine], for which the IC50 was < 100 nM. On to `CCc1nc(-c2nc(-c3ccc(OC(F)(F)F)cc3)no2)nn1Cc1ccccc1` [Example 33, 5-(1-Benzyl-5-ethyl-1H-1,2,4-triazol-3-yl)-3-(4-(trifluoromethoxy)phenyl)-1,2,4-oxadiazole], for which the 50% inhibitory concentration (IC50) was in the range of 1000 to 10000 nM. With `FC(F)(F)Oc1ccc(-c2noc(-c3nc(C4CC4)n(Cc4ccccc4)n3)n2)cc1` [Example 34, 5-(1-Benzyl-5-cyclopropyl-1H-1,2,4-triazol-3-yl)-3-(4-(trifluoromethoxy)phenyl)-1,2,4-oxadiazole], the IC50 was 1000 to 10000 nM. Take `Cc1nc(-c2nc(-c3ccc(OC(F)(F)F)cc3)no2)nn1Cc1ccnc(NCCN2CCOCC2)c1` [Example 35, 4-((5-Methyl-3-(3-(4-(trifluoromethoxy)phenyl)-1,2,4-oxadiazol-5-yl)-1H-1,2,4-triazol-1-yl)methyl)-N-(2-morpholinoethyl)pyridin-2-amine]: the IC50 is < 100 nM.

For the compound `CNc1cc(Cn2nc(-c3nc(-c4ccc(OC(F)(F)F)cc4)no3)nc2C)ccn1` [Example 36, N-Methyl-4-((5-methyl-3-(3-(4-(trifluoromethoxy)phenyl)-1,2,4-oxadiazol-5-yl)-1H-1,2,4-triazol-1-yl)methyl)pyridin-2-amine], the IC50 is < 100 nM. With `Cc1nc(-c2nc(-c3ccc(OC(F)(F)F)cc3)no2)nn1Cc1ccnc(N(C)C)c1` [Example 37, N,N-Dimethyl-4-((5-methyl-3-(3-(4-(trifluoromethoxy)phenyl)-1,2,4-oxadiazol-5-yl)-1H-1,2,4-triazol-1-yl)methyl)pyridin-2-amine], the IC50 was < 100 nM. With `CC(=O)N1CCN(c2cc(Cn3nc(-c4nc(-c5ccc(OC(F)(F)F)cc5)no4)nc3C)ccn2)CC1` [Example 38, 1-(4-(4-((5-Methyl-3-(3-(4-(trifluoromethoxy)phenyl)-1,2,4-oxadiazol-5-yl)-1H-1,2,4-triazol-1-yl)methyl)pyridin-2-yl)piperazin-1-yl)ethanone], the IC50 was < 100 nM. For `Cc1nc(-c2nc(-c3ccc(OC(F)(F)F)cc3)no2)nn1Cc1cccc(C(=O)NCCO)c1` [Example 39, N-(2-Hydroxyethyl)-3-((5-methyl-3-(3-(4-(trifluoromethoxy)phenyl)-1,2,4-oxadiazol-5-yl)-1H-1,2,4-triazol-1-yl)methyl)benzamide], the IC50 is 100 to 1000 nM. Take `Cc1nc(-c2nc(-c3ccc(OC(F)(F)F)cc3)no2)nn1Cc1cccc(C(=O)N(C)C)c1` [Example 40, N,N-Dimethyl-3-((5-methyl-3-(3-(4-(trifluoromethoxy)phenyl)-1,2,4-oxadiazol-5-yl)-1H-1,2,4-triazol-1-yl)methyl)benzamide]: the IC50 was < 100 nM. As for `COCCCNC(=O)c1ccc(Cn2nc(-c3nc(-c4ccc(OC(F)(F)F)cc4)no3)nc2C)cc1` [Example 41, N-(3-Methoxypropyl)-4-((5-methyl-3-(3-(4-(trifluoromethoxy)phenyl)-1,2,4-oxadiazol-5-yl)-1H-1,2,4-triazol-1-yl)methyl)benzamide], the IC50 lay within 100 to 1000 nM. For `Cc1nc(-c2nc(-c3ccc(OC(F)(F)F)cc3)no2)nn1Cc1ccc(C(=O)N2CCN(C)CC2)cc1` [Example 42, (4-((5-Methyl-3-(3-(4-(trifluoromethoxy)phenyl)-1,2,4-oxadiazol-5-yl)-1H-1,2,4-triazol-1-yl)methyl)phenyl)(4-methylpiperazin-1-yl)methanone] the value was 100 to 1000 nM; for `Cc1nc(-c2nc(-c3ccc(OC(F)(F)F)cc3)no2)nn1Cc1ccnc(N2CCS(=O)(=O)CC2)c1` [Example 43, 2-(1,1-Dioxidothiomorpholino)-4-((5-methyl-3-(3-(4-(trifluoromethoxy)phenyl)-1,2,4-oxadiazol-5-yl)-1H-1,2,4-triazol-1-yl)methyl)pyridin-1-ium trifluoroacetate], 100 to 1000 nM; for `Cc1nc(-c2nc(-c3ccc(OC(F)(F)F)cc3)no2)nn1Cc1cccc(N2CCOCC2)c1` [Example 44, 4-(3-((5-Methyl-3-(3-(4-(trifluoromethoxy)phenyl)-1,2,4-oxadiazol-5-yl)-1H-1,2,4-triazol-1-yl)methyl)phenyl)morpholine], < 100 nM.

Consider `Cc1nc(-c2nc(-c3ccc(OC(F)(F)F)cc3)no2)nn1Cc1ccnc(NCCN(C)C)c1` [Example 45, N1,N1-Dimethyl-N2-(4-((5-methyl-3-(3-(4-(trifluoromethoxy)phenyl)-1,2,4-oxadiazol-5-yl)-1H-1,2,4-triazol-1-yl)methyl)pyridin-2-yl)ethane-1,2-diamine], for which the IC50 fell in the range of 1000 to 10000 nM. The result for `Cc1nc(-c2nc(-c3ccc(OC(F)(F)F)cc3)no2)nn1Cc1ccnc(NCCN2CCCC2)c1` [Example 46, 4-((5-Methyl-3-(3-(4-(trifluoromethoxy)phenyl)-1,2,4-oxadiazol-5-yl)-1H-1,2,4-triazol-1-yl)methyl)-N-(2-(pyrrolidin-1-yl)ethyl)pyridin-2-amine] reads 1000 to 10000 nM; that for `Cc1nc(-c2nc(-c3ccc(OC(F)(F)F)cc3)no2)nn1Cc1ccc(Cl)s1` [Example 47, 5-(1-((5-Chlorothiophen-2-yl)methyl)-5-methyl-1H-1,2,4-triazol-3-yl)-3-(4-(trifluoromethoxy)phenyl)-1,2,4-oxadiazole], 100 to 1000 nM. The result for `Cc1cc(Cn2nc(-c3nc(-c4ccc(OC(F)(F)F)cc4)no3)nc2C)n(C)n1` [Example 48, 5-(1-((1,3-Dimethyl-1H-pyrazol-5-yl)methyl)-5-methyl-1H-1,2,4-triazol-3-yl)-3-(4-(trifluoromethoxy)phenyl)-1,2,4-oxadiazole] reads 100 to 1000 nM; that for `Cc1nc(-c2nc(-c3ccc(OC(F)(F)F)cc3)no2)nn1Cc1cc(=O)n2ccsc2n1` [Example 49, 7-((5-Methyl-3-(3-(4-(trifluoromethoxy)phenyl)-1,2,4-oxadiazol-5-yl)-1H-1,2,4-triazol-1-yl)methyl)-5H-thiazolo[3,2-a]pyrimidin-5-one], 100 to 1000 nM.
